Test results reported in patent US6911429B2, “Compositions and methods for treating cellular response to injury and other proliferating cell disorders regulated by hyaladherin and hyaluronans” (Transition Therapeutics Inc., priority 1999, dated 2005).
Where no end group is shown, it is not given here.

What was measured:
excisional skin wound = test: rat punch biopsy excisional skin wound model; type: in vivo; conditions: local application
[1] = tested on: bleomycin-induced lung fibrosis; test: bleomycin-induced lung injury / fibrosis model; type: in vivo
Text: As described in more detail below, the RHAMM peptide mimetics prevent these pathological events, particularly recruitment and activation of macrophages, from occurring following bleomycin-induced lung fibrosis (FIG. 32). In particular, the infiltration of inflammatory cells and local responses such as fibrosis is completely absent with treatment. […] Therefore, these reagents should be effective for treating lung diseases that involve recruiting macrophages and inflammatory cells, as well as fibrosis. FIG. 34 illustrates motility of BAL cells four days after injury in response to administration of RHAMM peptides. […] Values represent mean and standard error with three animals studied for each condition and at least 20 cells tracked per animal studied. Increased N-acetyl-β-glucosamimidase activity is a known marker for fibrosis in lung tissue. […] Briefly, bleomycin injury results in an increased glucosamimidase activity (* p<0.01 versus controls and saline animals). […] Values represent mean and standard error with five animals studied for each condition. FIG. 35B illustrates that mRNA of collagen type la in lungs harvested 4 days after injury is reduced in response to administration of HA binding Peptide A. Collagen type la is common indicator of fibrosis in lung tissue injury models as used throughout this invention. […] The data shown are representative of three independent experiments. The ability of HA binding peptides to inhibit fibrosis is further illustrated by histological analysis. FIG. 36 are micrographs from a histological analysis of lung tissue treated with and without HA binding Peptide A after bleomycin injury. Panels (a-c) show tissue after treatment with saline alone, and panels (d-f) show tissues injured by bleomycin treatment.

LR21 cells = test: podosome formation in LR21 cells treated with exon 4 peptide (cortactin or CAS); type: cell-based
Text: Podsomome formation was visualized using either fluorescent cortactin or CAS, the latter being a particularly useful marker for podosomes as illustrated by the micrographs in FIG. 17B.

human fibroblasts = test: velocity of cell locomotion of human fibroblasts on fibronectin; type: cell-based; conditions: 0.1-50 ng/ml, 16 hrs
Protocol: To quantify the effect of RHAMM sequence (amino acid residues 423-432; 423-432AA) to alter velocity of cell locomotion human fibroblasts were seeded on T-12.5 fibronectin coated flasks using A-MEM supplemented with glucose and 10% FBS. 2.5×10^4 cells were seeded and cells incubated for 4 hrs at 37° C. After incubation time cells were treated with increasing concentrations of RHAMM sequence peptide (423-432 AA, 0.1, 1.0, 5.0, 10 and 50 ng/ml) and cell locomotion was monitored over the period of 16 hrs on a 37° C. using 10× modulation objective (Zeiss, Germany) attached to a Zeiss Axiovert 100 inverted microscope equipped with Hoffman Modulation contrast optical filters (Greenvale, N.Y.). Cell images were captured with a CCD video camera module attached to a Hamamatsu CCD camera controller. Motility was assessed using Northern Exposure 2.9 image analysis software (Empix Imaging, Mississauga, Ontario). Nuclear displacement of 7-10 cells was measured and data were subjected to statistical analysis. Statistically significant (P<0.05) differences between means were assessed by the unpaired Student's T-test method, performed using Microsoft Excel '97 software.

[2] = binding to hyaluronic acid (HA)
Text: The present invention provides a method of similar sensitivity but which is cheaper and more reliable. The method is based on using HA binding partners discovered using the techniques described above for detecting RHAMM binding partners. Using a phage display library to bind to biotinylated HA permitted identification of five particular species of HA binding motifs described in SEQ. ID NOS: 6-10. This was accomplished by isolating phage that attached to HA which were further isolated, rescreened twice and recloned. The clones were then bound to biotinylated HA-sepharose beads and only those phage that could be released with unlabeled HA were retrieved, recloned and sequenced. Five clones comprising the sequences identified above were detected. These sequences all bind to HA and are useful for detecting HA in serum and tissues in an assay described below.

EAE in SJL/J mice = test: EAE mouse model for multiple sclerosis; type: in vivo; conditions: 5 mg/kg i.p. daily; failed to reach statistical significance
Protocol: Acute EAE was induced by immunization of 3 months old SJL/J female mice (Jackson Lab.; Bar Harbor, Me.) with the MBP and PTX pertussis toxin. Each animal received a sub-cutaneous injection at tail base of 200 μg MBP in 0.1 ml of CFA and received an intravenous injection of 200 ng of PTX. Pertussis toxin was injected again 48 hours later. Mice (4 animals per group) were treated with one of the following treatments through intraperitoneal injections: P-32 peptide at a dose of 5 mg/kg daily; S-7 peptide at a dose of 0.1 mg/kg daily starting on the day of first immunization. Treatment was stopped at time of sacrifice. Mice were monitored daily from day 7 after immunization for clinical signs of EAE and were scored on a scale of 0 to 5. A score of 0 represented the absence of signs while a score of 5 was given to moribund animals.

[3] = target: RHAMM binding to fibronectin (Homo sapiens, UniProt P02751); test: RHAMM binding to fibronectin (ELISA)
Chain of RHAMM binding to fibronectin (P02751 32-2477): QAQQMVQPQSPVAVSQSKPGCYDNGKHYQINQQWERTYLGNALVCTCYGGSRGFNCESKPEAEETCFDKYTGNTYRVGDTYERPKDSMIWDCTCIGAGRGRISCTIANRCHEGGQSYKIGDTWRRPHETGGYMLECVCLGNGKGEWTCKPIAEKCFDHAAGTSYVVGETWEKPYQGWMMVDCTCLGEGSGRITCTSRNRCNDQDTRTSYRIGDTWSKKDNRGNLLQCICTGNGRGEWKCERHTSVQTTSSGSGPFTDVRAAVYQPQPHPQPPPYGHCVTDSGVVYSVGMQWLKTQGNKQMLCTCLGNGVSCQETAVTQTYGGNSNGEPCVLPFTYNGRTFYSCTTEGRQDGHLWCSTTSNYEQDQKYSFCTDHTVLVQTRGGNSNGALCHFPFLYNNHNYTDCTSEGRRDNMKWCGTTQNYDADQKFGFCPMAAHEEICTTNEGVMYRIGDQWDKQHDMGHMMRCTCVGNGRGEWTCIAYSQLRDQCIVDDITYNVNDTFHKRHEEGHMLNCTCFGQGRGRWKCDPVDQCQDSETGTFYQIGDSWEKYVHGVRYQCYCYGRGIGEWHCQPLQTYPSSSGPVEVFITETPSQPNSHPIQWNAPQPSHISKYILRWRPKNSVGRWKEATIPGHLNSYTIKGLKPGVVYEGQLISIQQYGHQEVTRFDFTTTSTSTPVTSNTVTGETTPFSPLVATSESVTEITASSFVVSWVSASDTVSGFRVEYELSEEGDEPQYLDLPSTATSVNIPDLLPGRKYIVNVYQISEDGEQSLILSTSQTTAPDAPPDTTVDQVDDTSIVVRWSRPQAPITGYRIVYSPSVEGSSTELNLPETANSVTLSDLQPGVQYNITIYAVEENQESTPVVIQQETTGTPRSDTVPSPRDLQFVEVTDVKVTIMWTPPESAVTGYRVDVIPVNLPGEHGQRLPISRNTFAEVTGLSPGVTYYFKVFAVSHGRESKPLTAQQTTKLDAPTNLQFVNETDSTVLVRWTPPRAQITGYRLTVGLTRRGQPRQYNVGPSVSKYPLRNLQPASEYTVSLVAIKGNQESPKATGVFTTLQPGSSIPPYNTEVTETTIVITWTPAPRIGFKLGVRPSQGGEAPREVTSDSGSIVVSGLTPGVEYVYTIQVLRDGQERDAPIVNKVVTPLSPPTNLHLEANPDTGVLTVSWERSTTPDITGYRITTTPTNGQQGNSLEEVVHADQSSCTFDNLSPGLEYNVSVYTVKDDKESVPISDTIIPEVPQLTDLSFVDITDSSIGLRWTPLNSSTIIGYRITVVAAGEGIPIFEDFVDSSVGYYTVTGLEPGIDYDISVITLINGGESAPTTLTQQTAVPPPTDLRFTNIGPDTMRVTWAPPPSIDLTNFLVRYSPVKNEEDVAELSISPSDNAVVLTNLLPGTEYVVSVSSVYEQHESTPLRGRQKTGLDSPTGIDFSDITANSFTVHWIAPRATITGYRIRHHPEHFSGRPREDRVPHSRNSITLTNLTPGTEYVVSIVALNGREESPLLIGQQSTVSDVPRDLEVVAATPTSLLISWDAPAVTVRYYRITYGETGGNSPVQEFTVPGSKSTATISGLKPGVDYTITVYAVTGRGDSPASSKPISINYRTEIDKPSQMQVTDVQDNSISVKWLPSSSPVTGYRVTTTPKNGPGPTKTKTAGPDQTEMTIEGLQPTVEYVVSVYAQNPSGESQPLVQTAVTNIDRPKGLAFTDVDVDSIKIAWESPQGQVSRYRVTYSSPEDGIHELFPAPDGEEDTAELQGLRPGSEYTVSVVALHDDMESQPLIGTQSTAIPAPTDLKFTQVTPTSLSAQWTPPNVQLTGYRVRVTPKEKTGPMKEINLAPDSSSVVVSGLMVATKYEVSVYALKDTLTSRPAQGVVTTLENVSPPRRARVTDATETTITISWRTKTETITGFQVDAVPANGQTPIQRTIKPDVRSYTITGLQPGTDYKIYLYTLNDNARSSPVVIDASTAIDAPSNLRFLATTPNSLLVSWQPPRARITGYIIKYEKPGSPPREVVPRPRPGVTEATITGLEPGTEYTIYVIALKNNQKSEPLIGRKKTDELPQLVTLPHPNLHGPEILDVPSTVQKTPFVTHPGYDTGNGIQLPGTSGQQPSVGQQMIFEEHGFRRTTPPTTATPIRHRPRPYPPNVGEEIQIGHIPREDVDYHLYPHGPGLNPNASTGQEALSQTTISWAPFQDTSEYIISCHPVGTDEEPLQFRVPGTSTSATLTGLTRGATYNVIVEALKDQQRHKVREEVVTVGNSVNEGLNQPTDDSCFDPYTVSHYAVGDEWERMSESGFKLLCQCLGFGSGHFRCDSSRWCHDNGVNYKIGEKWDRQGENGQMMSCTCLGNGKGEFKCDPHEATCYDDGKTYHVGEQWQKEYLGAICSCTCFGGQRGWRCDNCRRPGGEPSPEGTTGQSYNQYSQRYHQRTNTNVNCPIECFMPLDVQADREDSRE
Text: FIG. 21 further illustrates that RHAMM binds to the CS-1 fragment of fibomectin and not to the RGDS sequence which was previously considered to be a critical sequence for fibronectin signaling of matrix protein degradation.

invasive cells = test: motility of invasive cells treated with RHAMM exon peptides or antibodies (FIG. 16); type: cell-based; conditions: P<0.001 for peptide vs scrambled peptide
Text: This effect is quantified in the graph shown in 16C and is highly significant (P<0.001, student's T test).

[4] = tested on: RHAMMv4 overexpressing cells; test: cell migration into wounds / wound repair of RHAMMv4 overexpressing cells; type: cell-based
Text: (§1) To further illustrate the relationship between RHAMM, erk activity and podosome formation in transient stage cells, podosome formation is shown to be inhibited by inhibitors of erk activity. […] Overexpression of RHAMMv4 results in a sustained high production of podosomes, detected by the marker protein cortactin (A). […] Overexpression of RHAMMv4 enhances cell migration into wounds (D) compared to the parent 10T1/2 fibroblast line that produces little RHAMMv4 (E).

MDA231 cells = test: in vitro invasion of MDA231 cells; type: cell-based, human
[5] = tested on: RHAMMv4 overexpressing cells; test: podosome formation in RHAMMv4 overexpressing cells (cortactin marker); type: cell-based; conditions: RHAMMv4 overexpression
Text: as §1

[6] = tested on: MDA231 human breast cancer cells; test: cell motility of MDA231 breast cancer cells; type: cell-based
NOD mice = test: NOD mouse model of type I diabetes mellitus; type: in vivo; conditions: 5 mg/kg i.p. three times a week for 23 weeks
Protocol: There are different colonies of NOD mice and there can be some variability between the colonies. The colony used develops the disease between 15-20 weeks of age and there is a 70-80% incidence of diabetes mellitus. The mice treated were divided into two groups of 10 animals; the first group being treated with P-16 peptide and the other group comprising of the control group, which was treated with saline. Once the NOD mice were 5 weeks old, the P-16 peptide was injected three times a week interperitoneally at a dose of 5 mg/kg for 23 weeks. The untreated mice and five mice from the treated group were sacrificed at 28 weeks of age. The remaining five mice from the treated group were taken off the peptide treatment at 28 weeks of age and were assessed for the disease after 16 weeks.
There are different colonies of NOD mice and there can be some variability between the colonies. The colony used develops the disease between 15-20 weeks of age and there is a 70-80% incidence of diabetes mellitus. The mice treated were divided into three groups of 10 animals; the first two groups being treated with S-3 and S-7 peptides, and the third group comprising of the control group, which was treated with saline. Once the NOD mice were 5 weeks old, the S-3 and S-7 peptides were injected three times a week intraperitoneally at a dose of 0.1 mg/kg for 23 weeks.

ND4 transgenic mice = test: ND4 transgenic mouse model of multiple sclerosis (demyelination clinical signs); type: in vivo; conditions: 10 mg/kg intraperitoneally three times per week
Protocol: Briefly, transgenic mice (ND 4) bearing 70 copies of the transgene for DM20, a myelin proteolipid protein, were utilized for assignment of scores based upon clinical signs of demyelination. Clinical signs which were assessed included general shaking, seizures, head jerk, hind-limb and tail shiver, unsteadiness, wobbly gait and limp tail. Within each sign score between 0-4 was given: where zero score means absent and score 4 means constant and uncontrollable appearance of the sign of the disease. Experimental groups of mice were divided into 4; each group contained 5 animals: one normal, one ND 4 mouse untreated and three ND 4 mice treated with RHAMM mimetic—P-peptide. Animals were treated three times per week with 10 mg/kg of P-peptide intraperitonealy. Peptide was resuspended in 300 μl of PBS.
The severity of the clinical signs increase until maximum around 6 months with animals dying around 8 to 9 months of age. The clinical signs assessed include general shaking, seizures, head jerk, hind limb and tail shiver, wobbly gait and limp tail. The scale of zero (absence) to four (constant and uncontrollable movements) was used for each of the clinical signs. […]

[7] = target: erk1 His-6-tagged fusion protein; test: peptide competition of erk1 His-6 binding to RHAMM v4 beads; D4 and D5 peptides present together

RGGGRGRRR (Peptide that binds a hyalauronan) [Peptide A]
infiltration of macrophages in wounded biopsies (Glucosimimidase activity) (excisional skin wound): inhibited the infiltration of macrophages | increase in collagen type la mRNA in lungs ([1]; 4 days after injury): completely inhibited | N-acetyl-β-glucosamimidase activity of BAL cells ([1]; 7 days after bleomycin injury): significantly decreased glucosamimidase activity | lung histology ([1]; after bleomycin injury): normal lung architecture | motility of BAL cells (macrophages) ([1]; four days after bleomycin injury, peptide given prior to injury): significantly lower cell locomotion

SEQ. ID NO: 16: peptide from murine RHAMM exon 4 (VSIEKEKIDEKCETEKLLEYIQEIS; listed as Mus musculus)
formation of podosomes (LR21 cells): blocks the formation of podosomes

RHAMM sequence (423-432 AA): RHAMM sequence peptide, amino acid residues 423-432 (SEQ ID NO 24) (KLRSQLVKRKQ; Homo sapien)
inhibition of migration of human fibroblasts (human fibroblasts): up to 40%

RGGGRGGGR (Peptide that binds a hyalauronan) [C]
infiltration of macrophages in wounded biopsies (Glucosimimidase activity) (excisional skin wound): inhibited the infiltration of macrophages

RGGGGGGGR (Peptide that binds a hyalauronan) [peptide D, reference compound]
infiltration of macrophages in wounded biopsies (Glucosimimidase activity) (excisional skin wound): does not inhibit macrophage infiltration | binding to HA [2]: does not bind HA

KQKIKHVVKLKDENSQLKSEVSKLRCQLAKKK [P-32, specific RHAMM region]
decrease in mean clinical score (EAE in SJL/J mice): 20%

SEQ. ID NO: 15: peptide mimicking RHAMM exon 3, used to raise anti-exon 3 antibodies (KLQATQKDLTESKG; listed as Mus musculus)
binding of RHAMM to fibronectin [3]: able to block the binding of intact RHAMM to fibronectin | motility of invasive cells (invasive cells): block the motility of invasive cells

COc1cccc(-c2cc(=O)c3ccccc3o2)c1N [PD09058]
wound repair (cell migration into wounds) [4]: blocks wound repair | cell invasion in vitro (MDA231 cells): blocks cell invasion | number of podosomes [5]: reduces the number of podosomes | cell motility / locomotion [6]: strongly reduces cellular locomotion

CSTMMSRSHKTRSHHV [P-peptide, CSTMMSRSHKTRSHHV]
toxicity (NOD mice): absence of any toxicity | toxicological or lethal effects on animals (ND4 transgenic mice): without observing toxicological or lethal effects

RGGGRGGRR (Peptide that binds a hyalauronan) [peptide B]
infiltration of macrophages in wounded biopsies (Glucosimimidase activity) (excisional skin wound): inhibited the infiltration of macrophages

KQKIKHVVKLKDENSQLKSEVSKLRSQLVKRK [D5 peptide of RHAMM]
reduction of erk1 binding to v4 [7]: 90%

QEKYNDTAQSLRDVTAQLESV [D4 peptide of RHAMM]
reduction of erk1 binding to v4 [7]: 90%
